Reference: patent US8007779B2, “Nucleic acid constructs and cells, and methods utilizing same for modifying the electrophysiological function of excitable tissues” (GeneGrafts Ltd., priority 2000, dated 2011)
Values joined by “and” are separate entries in the source; they are usually repeats but may differ in a detail not shown here. Equal values may be shown once. “Also recorded” adds a separate entry of the source.

What was measured:
[1] = test system: cultured neuronal network; assay: Spiking activity of cultured cortical neuronal network on multi-electrode array (MEA); format: cell-based, rat; conditions: 5 μM bicuculin, 10 μM DNQX or 20 μM APV added to the culture
Method: Cortical neurons were obtained from newborn rats within 24 hours from birth, following standard harvesting procedures (Culturing nerve cells, 2nd edition, Gary Ranker and Kimberly Goslin, 1998). The cortex tissue was digested enzymatically and mechanically dissociated and the neurons were plated directly onto substrate-integrated multi-electrode array (MEA) dishes prepared as described below. The cultures were bathed in MEM which was supplemented with heat-inactivated horse serum (5%), Glutamine (0.5 mM), Glucose (20 mM), and Gentamycin (10 μg/ml), and maintained in a tissue culture incubator at 37° C., 5% CO2 and 95% during the recording phases. Half of the medium was exchanged twice a week and the experiments were performed during the third week following plating, thus allowing complete maturation of the neurons (FIGS. 1a-b).
Arrays of 60 Ti/Au/TiN electrodes, 30 μm in diameter, spaced 200 μm from each other (MultiChannelSystems (MCS), Reutlingen, Germany) were utilized in the present study. The insulation layer (silicon nitride), was pretreated with poly-L-lysine forming a good surface for network development. A commercial 60-channel amplifier (B-MEA-1060, MCS, Reutlingen, Germany) with frequency limit range of 10-3000 Hz and a gain of ×1024 was utilized for signal amplification. The amplifier was connected to MCPPlus filter amplifiers (Alpha Omega, Nazareth, Israel) for further amplification (×10 to ×20). Stimulation through the MEA was performed using a dedicated 8-channel stimulus generator (MCS, Reutlingen, Germany).
In addition, the micro-incubation environment was arranged to support long-term recordings from MEA dishes. This was achieved by streaming a filtered, heated and humidified air/CO2 (95/5%) gas mixture, and by electrically heating the MEA platform to 37° C. Data is digitized using two 5200a/526 A/D boards (Microstar Laboratories, WA, USA).
Following electrical functionality determination, the neuronal network cultures were incubated with various electrical conduction blockers.

[2] = test system: right ventricular free wall; assay: In vivo local ventricular effective refractory period (ERP) after cell grafting, swine model; design: species or system pig; conditions: for ventricular ERP following local application of MTx: swine, sites grafted with transfected fibroblasts, all CLs (FIG. 20b)
Method: Swine model—Three domestic pigs (20-30) kg were studied. Anesthesia was induced with 5-10 ml of intravenous sodium pentothal 2.5% solution and maintained with inhaled isoflurane (2%) in oxygen. Following a right thoracotomy, each heart was exposed and a total of 6×10^6 cells were transplanted at a total of 7 different locations in the anterior free wall of the right ventricle. Cells were delivered using a 25 g needle using an injection volume of 250 μl. The sites of cell transplantation were marked with a suture. To prevent graft rejection, the animals were treated with an immunosuppressive regimen (cyclosporine, 10 mg/kg/d and methylprednisolone, 3 mg/kg/d). 7 days following cell transplantation, a second thoracotomy and a detailed epicardial electrophysiological study were performed.
The ERP in the pigs was measured in a similar manner to that in the rats but using slower basic stimulation intervals (CLs of 350, 400 and 500 ms). The ERP was measured at the site of cell transplantation as well as in remote sites and also following local intramyocardial injection of Margatoxin at the examined sites.

[3] = test system: left ventricular myocardium; assay: In vivo local ventricular effective refractory period (ERP) after cell grafting, rat model; conditions: for local ventricular ERP at the site of cell transplantation after MTx: study group (Kv1.3 fibroblasts, n=10), mean±SEM (FIG. 19b)
Method: Rat model—Male Sprague-Dawley rats weighing 200-250 gr were anesthetized using A Xylasine (0.5 mg/kg) and Ketamine (0.5 mg/kg) preparation [see Example 7]. The animals were then intubated and ventilated using a Harvard small-animal mechanical respirator. The chest wall was opened using a left thoracotomy and the heart was exposed. After removal of the pericardium, a total of 6×10^6 cells (either fibroblasts without transfections in the control group or fibroblast overexpressing the KV1.3 channel in the study group) were transplanted into the anterior aspect of the left ventricular wall using a 28 g needle. In order to prevent graft rejection, all animals were treated with a daily dose of cyclosporin (10 mg/kg) and methyprednisolone (2 mg/kg). The animals underwent a detailed electrophysiological study (see below) immediately before cell grafting and 7 days post-transplantation.
In vivo electrophysiological studies—The electrophysiological study in rats included a standard ventricular pacing protocol to determine the local myocardial effective refractory period (ERP). The ERP was evaluated by applying a train of 20 stimuli at a fixed cycle-length of 200 ms (S1), followed by a single premature stimulus (S2). The S1-S2 coupling interval was gradually shortened. The ERP was determined as the shortest S1-S2 coupling interval still capable of eliciting a ventricular response. Stimuli were generated using a computer controlled STG 1004 stimulus generator with the matching MC-Stim software (both from Multi Channel Systems, Reutlingen, Germany).
The ERP was measured at the site of cell transplantation and at remote sites, both prior to cell transplantation and seven days following cell grafting. In order to dissect the role of the overexpressed channel in altering the local myocardial electrophysiological properties, the ERP was measured also at each site following application of 9 μg/kg of Margatoxin (Alomone Labs, Jerusalem, Israel), a specific Kv 1.3 channel blocker as an intraperitoneal bolus.

[4] = test system: neonatal rat (Sprague Dawley) ventricular myocytes; assay: Spontaneous beating rate of neonatal rat ventricular myocyte/fibroblast co-cultures (MEA), with CTx; format: cell-based
Text: Cell co-culturing—Primary monolayer cultures of neonatal rat (Sprague Dawley) ventricular myocytes were generated as previously described [Nuss H B, Marban E, Johns D C. Overexpression of a human potassium channel suppresses cardiac hyperexcitability in rabbit ventricular myocytes. J Clin Invest. 1999; 103:889-96]. Briefly, following excision, the ventricles were minced and treated with RDB (IIBR, Ness-Ziona, Israel). Following centrifugation, dispersed cells were suspended in culture medium (Ham's F10), 5% fetal calf serum, 5% horse serum, 100 U/ml penicillin, […] streptomycin (all from Biological industries, Beit Haemek, Israel), 1 mM CaCl2 and 50 mg/100 ml bromodeoxyuridine (BrdU, Sigma). The cells were then cultured on gelatin coated (0.1%) microelectrode culture plates at a density of 1.5×10^6 cells/ml.
Once a well synchronous spontaneous activity was established in the cardiomyocyte cultures, fibroblasts (naïve, or Kv1.3 expressing fibroblasts) were seeded in a diffuse manner into the cardiomyocytic cultures. Two groups were studied: The cultures were studied daily, and the electrophysiological properties, essentially the spontaneous beating rate of the culture, was assessed at baseline and following application of the specific Kv1.3 blocker, Charybdotoxin (CTx), at increasing dosages (1, 10, 100 nM). […]

[5] = test system: neonatal rat ventricular cardiomyocytes (NRVM); assay: Synchronous activity, conduction block, conduction velocity and signal amplitude of cardiomyocyte/fibroblast co-cultures on MEA; format: cell-based
Method: (§1) Monolayer cultures of neonatal rat ventricular cardiomyocytes (NRVM) were prepared as previously described (Rubin et al, 1995), with some modifications. The cultures were maintained in a humidified incubator under a controlled environment of 5% CO2+95% air at 37° C.; fresh medium was replaced on alternating days.
(§2) Fibroblasts from the NIH 3T3 cell line were transfected with an expression cassette which included a mutant voltage gated potassium channel (Kv1.3) coding sequence (GeneBank Accession number H18261) placed under the transcription control of a constitutive promoter using standard procedures. Fibroblast cultures not transfected with the channel coding sequence were produced from the NIH 3T3 cell-line.
(§3) Once well synchronous spontaneous activity was established in the cardiomyocyte cultures, fibroblasts transfected with the Kv1.3 channel coding sequence or non-transfected fibroblasts were added to the cultures. Two different methods where used to seed the fibroblasts. In the first method, the fibroblast were suspended in trypsin for 5 minutes following which they were seeded in a diffuse pattern in the cardiomyocytic cultures (FIG. 4a). In the second method, the fibroblasts where pipetted up and down through a 5 ml pipette for 2 minutes and seeded in the cardiomyocytic cultures thus were forming clusters of fibroblasts (FIG. 4b).
(§4) Extracellular recordings from cultured cardiomyocytes were performed on a PC-based Microelectrode Data Acquisition System (Multi Channel Systems, Reutlingen, Germany), consisting of Multi-Electrode Array (MEA), pre- and filter-amplifiers, data acquisition board, and software. The MEA consists of a 50×50 mm glass substrate, in the center of which is an embedded 0.7×0.7 or 1.4×1.4 mm matrix of 60 Titanium-nitride, gold contacts 10 or 30 μm diameter electrodes insulated with silicone nitride, with inter-electrode distance of 100 or 200 μm (there are no electrodes in the corners of the matrix). Data were recorded at 10-25 KHz with 12-bit precision. During the recording sessions, the MEA (removed from the regular incubator) was constantly perfused with a gas mixture consisting of 5% CO2+95% air. Temperature was kept at 37±0.10° C.
Recorded data was filtered using cutoff frequency of 2 KHz (Fast et al, 1993). The filtered signal was then differentiated digitally to determine the Local Activation Time (LAT) at each electrode, corresponding to dF/dtmin (where F is the filtered signal) (Dolber and Spach, 1986). Color-coded activation maps were constructed by interpolating the LAT values for the sites between the electrodes, and by extrapolating the LAT values for the 4 corners of the MEA matrix. Activation maps were plotted by means of Matlab standard 2-d plotting function (pcolor) (Matlab 5.3 Mathworks Incorporated©). Conduction velocity was calculated by standard methods (Bayly et al, 1988).
Conduction block quantification is central to evaluating conduction block development in the cell cultures, and to evaluating reversibility of the conduction block following CTX application. A conduction block was determined using the following algorithm: […]
Electrical activity of the cultures was recorded on day one immediately prior to seeding of the fibroblasts and then daily until the cultures died or no spontaneous activity was detected. […]

[6] = test system: cardiomyocytes co-cultured with fibroblasts (NIH 3T3) transfected with voltage gated potassium channel Kv1.3; assay: Spontaneous activity rate of cardiomyocyte cultures and fibroblast co-cultures on MEA under CTX; format: cell-based, rat
Method: as §1, §2, §3, §4
Electrical activity of the cultures was recorded on day one immediately prior to seeding of the fibroblasts and then daily until the cultures died or no spontaneous activity was detected. During the daily measurements the cultures where subjected to increasing concentrations (0.1, 1, 10, 100 nM) of CTX.
Measurement were performed during spontaneous activity from three groups of cardiomyocyte cultures: cultures without fibroblasts, cultures with NIH 3T3 fibroblasts (seeded diffusely) and cultures with transfected NIH 3T3 fibroblasts (expressing the mutant voltage gated potassium channel coding sequence).

## N[C@H](CCCP(=O)(O)O)C(=O)O [APV, D-2-amino-5-phosphonovalerate]
[1]
  spiking activity in cultured neuronal network: completely abolished

## Margatoxin (TIINVKCTSPKQCLPPCKAQFGQSAGAKCMNGKCKCYPH)
[2]; pig grafted with transfected cells, basic CL drive 400 ms (FIG. 20a)
  local ERP after local application of MTx: 220 ms
[2]
  ventricular ERP following local application of MTx: near baseline values
[2]; listed as MTx
  ventricular ERP following local application of MTx: not different from the control sites
[3]; control group grafted with naive fibroblasts (n=8)
  local ERP after administration of Mtx: did not change significantly
[3]; one animal grafted with Kv1.3 fibroblasts, basic CL 200 ms (FIG. 19a)
  ventricular ERP at the site of cell grafting after Margatoxin: reversed and 100 ms
[3]
  local ventricular ERP at the site of cell transplantation after MTx: 117 ± 7.70 ms
[3]; listed as MTx
  local ventricular ERP at the site of cell transplantation after MTx: 117 ± 8 ms

## CN1CCc2cc3c(cc2[C@H]1[C@@H]1OC(=O)c2c1ccc1c2OCO1)OCO3 [bicuculin]
[1]
  spiking activity in cultured neuronal network: completely abolished

## Charybdotoxin (QFTNVSCTTSKECWSVCQRLHNTSRGKCMNKKCRCYS) [CTX]
[4]; control group (naive fibroblasts)
  beating frequency after CTx application: did not significantly alter
[4]; study group (Kv1.3 transfected fibroblasts), CTx 100 nM (FIG. 18b)
  reversibility of the negative chronotropic effect by CTx: full reversibility
[5]; co-culture with non-transfected fibroblasts, five days after seeding, CTX 10 nM (FIG. 12d)
  activation map after CTX: no appreciable change
[5]; co-cultures including fibroblasts transfected with Kv1.3, n=10 (FIG. 11)
  conduction block factor after Charybdotoxin: substantially decreased
[5]; co-cultures including non-transfected fibroblasts, n=9 (FIG. 11)
  conduction block factor after Charybdotoxin: minimal response
[5]; co-cultures with Kv1.3 transfected fibroblasts, CTX 10 nM (FIG. 7d)
  conduction block after CTX treatment: reversal; also recorded: reversed
[5]; co-cultures with Kv1.3 transfected fibroblasts, CTX 100 nM (FIGS. 6f-g)
  uncoupling effect after CTX treatment: reversed
[6]; CTX 10 nM, cardiomyocyte cultures or cardiomyocytes co-cultured with untransfected fibroblasts
  increase in spontaneous activity rate: did not increase
[6]; CTX 10 nM, co-cultures which included the Kv1.3 transfected fibroblasts
  increase in spontaneous activity rate: 20%
[6]; CTX 100 nM, cardiomyocyte cultures or cardiomyocytes co-cultured with untransfected fibroblasts
  increase in spontaneous activity rate: up to 15%
[6]; CTX 100 nM, co-cultures which included the Kv1.3 transfected fibroblasts
  increase in spontaneous activity rate: 55%

## O=[N+]([O-])c1cc2nc(O)c(O)nc2cc1[N+](=O)[O-] [DNQX]
[1]
  spiking activity in cultured neuronal network: completely abolished
